Reference: ChEMBL document CHEMBL1122681, “(Acylaryloxy)acetic acid diuretics. 5. [(2-Alkyl- and 2,2-disubstituted-1,3-dioxo-5-indanyl)oxy]acetic acids” (J Med Chem, 1984)

Columns and labels:
Pan troglodytes [1] = experiment: Compound was evaluated for diuretic activity in chimpanzee measured as increase in the number of microequivalents of K+ /min at 1 mg/kg; format: functional, Urine
Pan troglodytes [2] = experiment: (§1) Compound was evaluated for diuretic activity in chimpanzee measured as increase in the number of microequivalents of Cl- electrolyte/min at 1 mg/kg; format: functional, Urine
Pan troglodytes [3] = experiment: Compound was evaluated for diuretic activity in chimpanzee measured as clearance of […] and urate after peroral administration of 5 mg/kg; format: functional, Urine; details: route oral
Pan troglodytes [4] = experiment: (§2) Compound was evaluated for diuretic activity in chimpanzee measured as increase in the number of microequivalents of Na+ /min at 1 mg/kg; format: functional, Urine
Pan troglodytes [5] = experiment: as §1; format: functional, Urine; remark: listed apart in the source
Pan troglodytes [6] = experiment: Compound was evaluated for diuretic activity in chimpanzee measured as increase in the number of microequivalents of K+ /min at 0.5 mg/kg; format: functional, Urine
Pan troglodytes [7] = experiment: Compound was evaluated for diuretic activity in chimpanzee measured as increase in volume of urine at 1 mg/kg; format: functional
Pan troglodytes [8] = experiment: Compound was evaluated for diuretic activity in chimpanzee measured as increase in volume of urine at 0.5 mg/kg; format: functional
Pan troglodytes [9] = experiment: Compound was evaluated for diuretic activity in chimpanzee measured as clearance of […] and urate after intra venous administration of 0. 5 mg/kg.; format: functional, Urine
Pan troglodytes [10] = experiment: Compound was evaluated for diuretic activity in chimpanzee measured as increase in the number of microequivalents of Na+ /min at 0.5 mg/kg; format: functional, Urine
Pan troglodytes [11] = experiment: Compound was evaluated for diuretic activity in chimpanzee measured as increase in volume of urine at 5 mg/kg; format: functional
Canis familiaris [12] = experiment: Compound was evaluated for diuretic activity, in female mongrel dogs by measuring amount of Cl- in urine after iv administration of 5 mg/kg (control/compound treatment results) Control = 6; format: functional, Canis lupus familiaris
Canis familiaris [13] = experiment: Compound was evaluated for diuretic activity, in female mongrel dogs by measuring amount of K+ in urine after iv administration of 5 mg/kg (control/compound treatment results) Control = 5; format: functional, Canis lupus familiaris
Canis familiaris [14] = experiment: Compound was evaluated for diuretic activity, administered orally in female mongrel dogs (5 mg/kg) measured as milliequivalents of Na; format: functional, Canis lupus familiaris, Urine
Canis familiaris [15] = experiment: (§3) Compound was evaluated for diuretic activity, in female mongrel dogs by measuring volume of urine, after iv administration of 5 mg/kg (control/compound treatment results) Control = 1; format: functional, Canis lupus familiaris
Pan troglodytes [16] = experiment: Compound was evaluated for diuretic activity in chimpanzee measured as increase in the number of microequivalents of Cl- electrolyte/min at 5 mg/kg; format: functional, Urine
Pan troglodytes [17] = experiment: Compound was evaluated for diuretic activity in chimpanzee measured as increase in the number of microequivalents of K+ /min at 5 mg/kg; format: functional, Urine
Pan troglodytes [18] = experiment: as §2; format: functional, Urine; remark: listed apart in the source
Canis familiaris [19] = experiment: Compound was evaluated for diuretic activity, administered orally in female mongrel dogs (5 mg/kg) measured as milliequivalents of K; format: functional, Canis lupus familiaris, Urine
Pan troglodytes [20] = experiment: Compound was evaluated for diuretic activity in chimpanzee measured as clearance of […] and urate after intra venous administration of 1 mg/kg; format: functional, Urine
Canis familiaris [21] = experiment: Compound was evaluated for diuretic activity, administered orally in female mongrel dogs (5 mg/kg) measured as milliequivalents of Cl-; format: functional, Canis lupus familiaris, Urine
Canis familiaris [22] = organism: Canis familiaris; experiment: Volume of urine in dog; format: ADME, organism-based, Canis lupus familiaris; details: in vivo
Pan troglodytes [23] = experiment: Compound was evaluated for diuretic activity in chimpanzee measured as increase in the number of microequivalents of Na+ /min at 5 mg/kg; format: functional, Urine
Canis familiaris [24] = experiment: Compound was evaluated for diuretic activity, in female mongrel dogs by measuring amount of Na+ in urine after iv administration of 5 mg/kg (control/compound treatment results) Control = 37; format: functional, Canis lupus familiaris
[25] = volume of urine at 27 mg/kg; format: ADME, organism-based; set-up: dose 27 mg/kg; details: in vivo
Rattus norvegicus [26] = experiment: Compound was evaluated for diuretic activity administered orally in female rats measured as milliequivalents of Cl-x 100 / cage at 9 mg/kg; format: functional, Urine; details: route oral
Rattus norvegicus [27] = experiment: Compound was evaluated for diuretic activity administered orally in female rats measured as milliequivalents of Na+x 100 / cage at 9 mg/kg; format: functional, Urine; details: route oral
[28] = volume of urine at 9 mg/kg; format: ADME, organism-based; set-up: dose 9 mg/kg; details: in vivo
Rattus norvegicus [29] = experiment: Compound was evaluated for diuretic activity administered orally in female rats measured as milliequivalents of K+x 100 / cage at 81 mg/kg; format: functional, Urine; details: route oral
Rattus norvegicus [30] = experiment: Compound was evaluated for diuretic activity administered orally in female rats measured as milliequivalents of Na+x 100 / cage at 3 mg/kg; format: functional, Urine; details: route oral
[31] = volume of urine at 81 mg/kg; format: ADME, organism-based; set-up: dose 81 mg/kg; details: in vivo
Canis familiaris [32] = experiment: Compound was evaluated for diuretic activity, in female mongrel dogs by measuring amount of Na+ in urine after iv administration of 5 mg/kg (control/compound treatment results) Control = 29; format: functional, Canis lupus familiaris
Canis familiaris [33] = experiment: as §3; format: ADME, organism-based, Canis lupus familiaris; set-up: dose 5 mg/kg, route intravenous; details: dog, in vivo
Canis familiaris [34] = experiment: Compound was evaluated for diuretic activity, in female mongrel dogs by measuring amount of Cl- in urine after iv administration of 5 mg/kg (control/compound treatment results) Control = 1; format: functional, Canis lupus familiaris
Rattus norvegicus [35] = experiment: Compound was evaluated for diuretic activity administered orally in female rats measured as milliequivalents of Cl-x 100 / cage at 3 mg/kg; format: functional, Urine; details: route oral
Rattus norvegicus [36] = experiment: Compound was evaluated for diuretic activity administered orally in female rats measured as milliequivalents of Cl-x 100 / cage at 81 mg/kg; format: functional, Urine; details: route oral
Rattus norvegicus [37] = experiment: Compound was evaluated for diuretic activity administered orally in female rats measured as milliequivalents of K+x 100 / cage at 3 mg/kg; format: functional, Urine; details: route oral
Rattus norvegicus [38] = experiment: Compound was evaluated for diuretic activity administered orally in female rats measured as milliequivalents of K+x 100 / cage at 27 mg/kg; format: functional, Urine; details: route oral
Rattus norvegicus [39] = experiment: Compound was evaluated for diuretic activity administered orally in female rats measured as milliequivalents of Cl-+x 100 / cage at 27 mg/kg; format: functional, Urine; details: route oral
Rattus norvegicus [40] = experiment: Compound was evaluated for diuretic activity administered orally in female rats measured as milliequivalents of K+x 100 / cage at 9 mg/kg; format: functional, Urine; details: route oral
Pan troglodytes [41] = experiment: Compound was evaluated for diuretic activity in chimpanzee measured as clearance of […] and urate after intra venous administration of 1 mg/kg.; format: functional, Urine
Rattus norvegicus [42] = experiment: Compound was evaluated for diuretic activity administered orally in female rats measured as milliequivalents of Na+x 100 / cage at 81 mg/kg; format: functional, Urine; details: route oral
Canis familiaris [43] = organism: Canis familiaris; experiment: volume of urine in dog; format: ADME, organism-based, Canis lupus familiaris; details: in vivo
[44] = volume of urine at 3 mg/kg; format: ADME, organism-based; set-up: dose 3 mg/kg; details: in vivo
Canis familiaris [45] = experiment: Compound was evaluated for diuretic activity, in female mongrel dogs by measuring amount of K+ in urine after iv administration of 5 mg/kg (control/compound treatment results) Control = 18; format: functional, Canis lupus familiaris
Rattus norvegicus [46] = experiment: Compound was evaluated for diuretic activity administered orally in female rats measured as milliequivalents of Na+x 100 / cage at 27 mg/kg; format: functional, Urine; details: route oral

## CC1(c2ccccc2)C(=O)c2cc(OCC(=O)O)c(Cl)c(Cl)c2C1=O (configuration not stated)
Pan troglodytes [1]
  Increase: 25
Pan troglodytes [2]
  Increase: 30
Pan troglodytes [3]
  Delta C urate / delta C insulin: 0.043
Pan troglodytes [4]
  Increase: 2
Pan troglodytes [5]
  Increase: 36
Pan troglodytes [6]
  Increase: 31
Pan troglodytes [7]
  Increase in volume: 0.6 mL/min
Pan troglodytes [8]
  Increase in volume: 0.3 mL/min
Pan troglodytes [9]
  Delta C urate / delta C insulin: 0.01
Pan troglodytes [10]
  Increase: 29

## CCC1C(=O)c2cc(OCC(=O)O)c(C)c(C)c2C1=O (configuration not stated)
Pan troglodytes [11]
  Increase in volume: 1.2 mL/min
Pan troglodytes [1]
  Increase: 41
Canis familiaris [12]
  Activity: 114 u equiv min-1
Canis familiaris [13]
  Activity: 24 u equiv min-1
Canis familiaris [14]
  Activity: 6
Pan troglodytes [3]
  Delta C urate / delta C insulin: 0.061
Canis familiaris [15]
  Activity: 4 mL/min
Pan troglodytes [5]
  Increase: 314
Pan troglodytes [16]
  Increase: 244
Pan troglodytes [17]
  Increase: 30
Pan troglodytes [18]
  Increase: 254
Canis familiaris [19]
  Activity: 5
Pan troglodytes [7]
  Increase in volume: 1.6 mL/min
Pan troglodytes [20]
  Delta C urate / delta C insulin: 0.101
Canis familiaris [21]
  Activity: 8
Canis familiaris [22]
  Urine volume: 553 mL
Pan troglodytes [23]
  Increase: 194
Canis familiaris [24]
  Activity: 196 u equiv min-1

## NS(=O)(=O)c1cc(C(=O)O)c(NCc2ccco2)cc1Cl [FUROSEMIDE]
[25]
  Urine volume: 36 mL
Rattus norvegicus [26]
  Activity: 96
Rattus norvegicus [27]
  Activity: 69
Pan troglodytes [1]
  Increase: 154
  P Increase: 100
[28]
  Urine volume: 28 mL
Pan troglodytes [2]
  Increase: 961
Rattus norvegicus [29]
  Activity: 97
Canis familiaris [14]
  Activity: 23
Pan troglodytes [3]
  Delta C urate / delta C insulin: -0.083
Rattus norvegicus [30]
  Activity: 57
Pan troglodytes [4]
  Increase: 738
[31]
  Urine volume: 46 mL
Canis familiaris [32]
  Activity: 960 u equiv min-1
Canis familiaris [33]
  Urine volume: 3 mL/min
Pan troglodytes [5]
  Increase: 928
Pan troglodytes [18]
  Increase: 749
Canis familiaris [34]
  Activity: 1081 u equiv min-1
Canis familiaris [19]
  Activity: 31
Pan troglodytes [7]
  Increase: 0.8 mL/min
  Increase in volume: 7.3 mL/min
Rattus norvegicus [35]
  Activity: 71
Rattus norvegicus [36]
  Activity: 328
Rattus norvegicus [37]
  Activity: 31
Rattus norvegicus [38]
  Activity: 60
Rattus norvegicus [39]
  Activity: 228
Rattus norvegicus [40]
  Activity: 39
Canis familiaris [21]
  Activity: 8
Pan troglodytes [41]
  Delta C urate / delta C insulin: -0.005
Rattus norvegicus [42]
  Activity: 253
Canis familiaris [43]
  Urine volume: 36 mL
[44]
  Urine volume: 26 mL
Canis familiaris [45]
  Activity: 141 u equiv min-1
Rattus norvegicus [46]
  Activity: 150
